This is an account of results in patent US11472793B2, “Inhibitors of cysteine proteases and methods of use thereof” (priority 2020, dated 2022).

Molecules are shown by their SMILES. Read-outs that look alike come from different tables or passages of the source.

One test concerns the target 229E mPRO (Human coronavirus 229E (HCoV-229E), UniProt P0C6X1). The test is described as follows: 229E mPRO enzymatic assay. In kind it is biochemical, Human Coronavirus (HCov) 229E.
For a further test, the system named is HCoV 229E. Put plainly: HCoV 229E cytopathic effect (CPE) assay. In kind it is cell-based, Human Coronavirus (HCov) 229E. The conditions noted are these: read-out: 229E CPE EC50 (μM).

Chain of 229E mPRO (P0C6X1 2966-3267 limits assumed): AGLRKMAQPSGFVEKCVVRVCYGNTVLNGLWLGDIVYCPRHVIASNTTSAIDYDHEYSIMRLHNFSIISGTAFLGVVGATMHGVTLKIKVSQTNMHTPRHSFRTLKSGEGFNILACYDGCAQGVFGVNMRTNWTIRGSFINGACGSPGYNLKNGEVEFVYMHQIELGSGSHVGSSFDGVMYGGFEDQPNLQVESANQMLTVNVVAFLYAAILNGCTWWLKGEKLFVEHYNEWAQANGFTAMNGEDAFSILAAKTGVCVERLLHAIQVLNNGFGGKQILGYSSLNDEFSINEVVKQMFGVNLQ
Description for 229E mPRO: Compounds were assayed using standard methods to assess compound activity and IC50. […] The assay buffer contained 20 mM of Tris-HCl (pH 7.3), 100 mM of NaCl, 1 mM of EDTA, 5 mM of TCEP and 0.1% BSA.
The compounds were added to an assay plate.
IC50 values of compounds were calculated with the GraphPad Prism software using the nonlinear regression model of log(inhibitor) vs. response—Variable slope (four parameters). The inhibition activity was calculated using the formula below, IC50 values was calculated using the Inhibition % data. Inhibition %=[(Sample−Average ZPE)/(Average HPE−Average ZPE)]*100%
^#HEP: Hundred percent effect controls. Containing substrate+enzyme+1 μM GC376.
Containing enzyme+substrate, no compound.
Sample: Compound activity testing wells. Containing compound+enzyme+substrate.
BG: Compound background control wells. Containing compound+substrate, no enzyme.
Description for HCoV 229E: The antiviral activity of compounds was calculated based on the protection of the virus-induced CPE at each concentration normalized by the virus control.
Reagents and instruments used in this assay include luminescent cell viability assay kit CellTiter Glo (Promega) and Microplate Reader Synergy2 (BioTek).
Cytopathic effect (CPE) was measured by CellTiter Glo following the manufacturer's manual. The antiviral activity of compounds was calculated based on the protection of the virus-induced CPE at each concentration normalized by the virus control.

Consider `N#C[C@H](C[C@@H]1CCCNC1=O)NC(=O)C1CC2(CN1C(=O)c1cc3cccc(Cl)c3[nH]1)CC(F)(F)C2` (single isomer, unassigned) [743 (Isomer 2)], for which the IC50 – broadly, the concentration that inhibits the measured activity by half – against 229E mPRO is below 2000 nM. The EC50 (commonly the concentration giving half of the maximal effect) in the test with HCoV 229E was below 2 µM. `N#C[C@H](C[C@@H]1CCCNC1=O)NC(=O)C1CC2(CCC2)CN1C(=O)c1cc2cccc(Cl)c2[nH]1` (single isomer, unassigned) [731 (Isomer 1)] registered an IC50 on 229E mPRO below 2000 nM. In addition, the EC50 in the test with HCoV 229E was below 2 µM.

For `COc1cccc2[nH]c(C(=O)N3C[C@@H]4CC[C@@H]4[C@H]3C(=O)N[C@H](C#N)C[C@@H]3CCNC3=O)cc12` (single isomer, unassigned) [547 (Isomer 2)], the half-maximal inhibitory concentration (IC50) on 229E mPRO (read-out: 229E mPRO IC50) was below 2000 nM. Regarding `N#C[C@H](C[C@@H]1CCCNC1=O)NC(=O)C1CC2(CCC2)CN1C(=O)c1cc2cccc(Cl)c2[nH]1` (single isomer, unassigned) [729 (Isomer 1)], the IC50 on 229E mPRO (read-out: 229E mPRO IC50) was below 2000 nM.
